Assay results published in patent US20240239806A1, “COMPOUNDS, COMPOSITIONS AND METHODS OF TREATING DISORDERS” (Chengdu Anticancer Bioscience, Ltd., priority 2021, published 2024).
“Also recorded” adds a separate entry of the source.

These compounds were tested on A549 (assay: MECP in cancer cell line). Details: Homo sapiens.
Assay type: cell-based
How it was run: (§1)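 Cells grown in DMEM with 5% FBS at 37° C, 5% CO2, then treated at 1 nM to 30 μM. Imaging at 24, 48 or 72 h scored mitotic arrest or DNA-content change; hits show transient mitotic-index rise at 24 h and polyploid accumulation at 48 h; values binned A (≤1.0 μM) to D (>30.0 μM).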

Row | Structure (SMILES) | minimal effective concentration
1 | COc1cc(NC(C)=O)cc(Oc2ccnc3ccsc23)c1 [Compound 43, N-(3-methoxy-5-(thieno[3,2-b]pyridin-7-yloxy)phenyl)acetamide] | 0.001 to 1 µM
2 | COc1cc(Oc2ccnc3cc(OC)c(OC)cc23)cc(-n2cccn2)c1 [Compound 26, 6,7-dimethoxy-4-(3-methoxy-5-(1H-pyrazol-1-yl)phenoxy)quinoline] | 0.001 to 1 µM

What follows are compounds tested on SW480 (assay: MECP in cancer cell line). Details: Homo sapiens.
Assay type: cell-based
How it was run: as §1

Row | Structure (SMILES) | minimal effective concentration
3 | COc1cc(NC(C)=O)cc(Oc2ccnc3ccsc23)c1 [Compound 43, N-(3-methoxy-5-(thieno[3,2-b]pyridin-7-yloxy)phenyl)acetamide] | 0.001 to 1 µM
4 | COc1cc(Oc2ccnc3cc(OC)c(OC)cc23)cc(-n2cccn2)c1 [Compound 26, 6,7-dimethoxy-4-(3-methoxy-5-(1H-pyrazol-1-yl)phenoxy)quinoline] | 0.001 to 1 µM

These compounds were tested on Hela (assay: MECP in cancer cell line). Details: Homo sapiens.
Assay type: cell-based
How it was run: as §1

Row | Structure (SMILES) | minimal effective concentration
5 | COc1cc(NC(C)=O)cc(Oc2ccnc3ccsc23)c1 [Compound 43, N-(3-methoxy-5-(thieno[3,2-b]pyridin-7-yloxy)phenyl)acetamide] | 0.001 to 1 µM
6 | COc1cc(Oc2ccnc3cc(OC)c(OC)cc23)cc(-n2cccn2)c1 [Compound 26, 6,7-dimethoxy-4-(3-methoxy-5-(1H-pyrazol-1-yl)phenoxy)quinoline] | 0.001 to 1 µM

The compounds below were run on MDA-MB-231 (assay: MECP in cancer cell line). Details: Homo sapiens.
Assay type: cell-based
How it was run: as §1

Row | Structure (SMILES) | minimal effective concentration
7 | COc1cc(NC(C)=O)cc(Oc2ccnc3ccsc23)c1 [Compound 43, N-(3-methoxy-5-(thieno[3,2-b]pyridin-7-yloxy)phenyl)acetamide] | 0.001 to 1 µM
8 | COc1cc(Oc2ccnc3cc(OC)c(OC)cc23)cc(-n2cccn2)c1 [Compound 26, 6,7-dimethoxy-4-(3-methoxy-5-(1H-pyrazol-1-yl)phenoxy)quinoline] | 0.001 to 1 µM

Each compound was assayed on T2 HCC (assay: MECP in cancer cell line). Details: Mus musculus.
Assay type: cell-based
How it was run: as §1

Row | Structure (SMILES) | minimal effective concentration
9 | COc1cc(NC(C)=O)cc(Oc2ccnc3ccsc23)c1 [Compound 43, N-(3-methoxy-5-(thieno[3,2-b]pyridin-7-yloxy)phenyl)acetamide] | 0.001 to 1 µM
10 | COc1cc(Oc2ccnc3cc(OC)c(OC)cc23)cc(-n2cccn2)c1 [Compound 26, 6,7-dimethoxy-4-(3-methoxy-5-(1H-pyrazol-1-yl)phenoxy)quinoline] | 0.001 to 1 µM

These compounds were tested on HCT116 (assay: MECP in cancer cell line). Details: Homo sapiens, HCT-116.
Assay type: cell-based
How it was run: as §1

Row | Structure (SMILES) | minimal effective concentration
11 | COc1cc(NC(C)=O)cc(Oc2ccnc3ccsc23)c1 [Compound 43, N-(3-methoxy-5-(thieno[3,2-b]pyridin-7-yloxy)phenyl)acetamide] | 0.001 to 1 µM
12 | COc1cc(Oc2ccnc3cc(OC)c(OC)cc23)cc(-n2cccn2)c1 [Compound 26, 6,7-dimethoxy-4-(3-methoxy-5-(1H-pyrazol-1-yl)phenoxy)quinoline] | 0.001 to 1 µM

Each compound was assayed on RPEMYC^H2B-GFP cells (assay: Phenotypic screening assay (mitotic arrest, polyploidy)). Details: 1 nM to 30 μM, read-out: Min. Effective conc. for Polyploidy (≥5%).
Assay type: cell-based
How it was run: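 RPE cells expressing MYC and H2B-EGFP treated with compound at 1 nM–30 μM; mitotic index scored at 24 h and polyploidy (DNA content) at 48 h by automated imaging, with reads at 24, 48 or 72 h. Hits show transient mitotic arrest followed by polyploid accumulation.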

Row | Structure (SMILES) | minimal effective concentration
13 | COc1cc(NC(C)=O)cc(Oc2ccnc3ccsc23)c1 [Compound 43, N-(3-methoxy-5-(thieno[3,2-b]pyridin-7-yloxy)phenyl)acetamide] | 0.001 to 1 µM
14 | COc1cc(Oc2ccnc3cc(OC)c(OC)cc23)cc(-n2cccn2)c1 [Compound 26, 6,7-dimethoxy-4-(3-methoxy-5-(1H-pyrazol-1-yl)phenoxy)quinoline] | 0.001 to 1 µM

Same assay, conditions: 1 nM to 30 μM, read-out: Mitotic Arrest (≥5%)

Row | Structure (SMILES) | minimal effective concentration
15 | COc1cc(NC(C)=O)cc(Oc2ccnc3ccsc23)c1 [Compound 43, N-(3-methoxy-5-(thieno[3,2-b]pyridin-7-yloxy)phenyl)acetamide] | 0.001 to 1 µM
16 | COc1cc(Oc2ccnc3cc(OC)c(OC)cc23)cc(-n2cccn2)c1 [Compound 26, 6,7-dimethoxy-4-(3-methoxy-5-(1H-pyrazol-1-yl)phenoxy)quinoline] | 0.001 to 1 µM

Same assay, conditions: 1 nM to 30 μM, read-out: Proliferative arrest (>50%)

Row | Structure (SMILES) | IC50
17 | COc1cc(NC(C)=O)cc(Oc2ccnc3ccsc23)c1 [Compound 43, N-(3-methoxy-5-(thieno[3,2-b]pyridin-7-yloxy)phenyl)acetamide] | 1 to 1000 nM
18 | COc1cc(Oc2ccnc3cc(OC)c(OC)cc23)cc(-n2cccn2)c1 [Compound 26, 6,7-dimethoxy-4-(3-methoxy-5-(1H-pyrazol-1-yl)phenoxy)quinoline] | 1 to 1000 nM

What follows are compounds tested on human breast cancer cell line MDA-MB-231 (assay: Xenograft assay). Details: MDA-MB-231 xenograft, Nu/Nu mice, 25 mg/kg oral gavage twice a day for 7 days.
Assay type: in vivo
Protocol: (§2) Xenografts were initiated in immunocompromised (Nu/Nu) mice with the human lung adenocarcinoma cell line NCI-H23 (FIG. 4A) and the human breast cancer cell line MDA-MB-231 (FIG. 4B). Seven million cells were injected subcutaneously into each mouse and treatment was initiated when the average tumor volumes reached 150 mm3 (n=5/group). Tumor-bearing mice were randomized into different groups to receive either vehicle or indicated compounds. The compounds were administered through oral gavage twice a day for 7 days. For these experiments, all compounds were first dissolved in DMSO and then diluted 1:10 into a mixture containing 50% PEG300 and 49% PBS, 1% Tween 80, pH2.2. 100 ul of drug solution was administered with each dose to each a dose of 25 mg/kg. Tumor volumes were determined from digital caliper raw data by using the formula: Volume (mm3)=(L×W^2)/2. The value W (Width) is the smaller of two perpendicular tumor axes and the value L (Length) is the larger of two perpendicular axes. Mean tumor volumes were calculated for each treatment group at the start point (day 0) and the endpoint (day 7). The percentage change of tumor volumes, defined as (Tumor […]˜Tumor Volume^day0)/Tumor Volume^day0×100% is presented.

Row | Structure (SMILES) | tumor growth (percentage change of tumor volumes)
19 | COc1cc(NC(C)=O)cc(Oc2ccnc3ccsc23)c1 [Compound 43, N-(3-methoxy-5-(thieno[3,2-b]pyridin-7-yloxy)phenyl)acetamide] | suppress the growth; also recorded: suppressing the tumor growth and even eliciting tumor regression
20 | COc1cc(Oc2ccnc3cc(OC)c(OC)cc23)cc(-n2cccn2)c1 [Compound 26, 6,7-dimethoxy-4-(3-methoxy-5-(1H-pyrazol-1-yl)phenoxy)quinoline] | suppress the growth; also recorded: suppressing the tumor growth

What follows are compounds tested on human lung adenocarcinoma cell line NCI-H23 (assay: Xenograft assay). Details: Nu/Nu mice, 25 mg/kg oral gavage twice a day for 7 days.
Assay type: in vivo
Protocol: as §2

Row | Structure (SMILES) | tumor growth (percentage change of tumor volumes)
21 | COc1cc(NC(C)=O)cc(Oc2ccnc3ccsc23)c1 [Compound 43, N-(3-methoxy-5-(thieno[3,2-b]pyridin-7-yloxy)phenyl)acetamide] | suppress the growth; also recorded: suppressing the tumor growth and even eliciting tumor regression
22 | COc1cc(Oc2ccnc3cc(OC)c(OC)cc23)cc(-n2cccn2)c1 [Compound 26, 6,7-dimethoxy-4-(3-methoxy-5-(1H-pyrazol-1-yl)phenoxy)quinoline] | suppress the growth; also recorded: suppressing the tumor growth

Each compound was assayed on NCI-H23 (assay: MTT assay of cellular proliferation). Details: Homo sapiens, 50% inhibition of cellular proliferation.
Assay type: cell-based
How it was run: (§3)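 EC50 for 50% growth inhibition came from MTT formazan absorbance at 570 nm after 3–4 h dye incubation. Beforehand, cells grown to 20–30% confluence (15–24 h) in DMEM/5% FBS were treated with compound over 1 nM–30 μM.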

Row | Structure (SMILES) | EC50
23 | COc1cc(NC(C)=O)cc(Oc2ccnc3ccsc23)c1 [Compound 43, N-(3-methoxy-5-(thieno[3,2-b]pyridin-7-yloxy)phenyl)acetamide] | 1 to 1000 nM
24 | COc1cc(Oc2ccnc3cc(OC)c(OC)cc23)cc(-n2cccn2)c1 [Compound 26, 6,7-dimethoxy-4-(3-methoxy-5-(1H-pyrazol-1-yl)phenoxy)quinoline] | 1 to 1000 nM

The compounds below were run on A549 (assay: MTT assay of cellular proliferation). Details: Homo sapiens, 50% inhibition of cellular proliferation.
Assay type: cell-based
How it was run: as §3

Row | Structure (SMILES) | EC50
25 | COc1cc(NC(C)=O)cc(Oc2ccnc3ccsc23)c1 [Compound 43, N-(3-methoxy-5-(thieno[3,2-b]pyridin-7-yloxy)phenyl)acetamide] | 1 to 1000 nM
26 | COc1cc(Oc2ccnc3cc(OC)c(OC)cc23)cc(-n2cccn2)c1 [Compound 26, 6,7-dimethoxy-4-(3-methoxy-5-(1H-pyrazol-1-yl)phenoxy)quinoline] | 1 to 1000 nM

What follows are compounds tested on SW480 (assay: MTT assay of cellular proliferation). Details: Homo sapiens, 50% inhibition of cellular proliferation.
Assay type: cell-based
How it was run: as §3

Row | Structure (SMILES) | EC50
27 | COc1cc(NC(C)=O)cc(Oc2ccnc3ccsc23)c1 [Compound 43, N-(3-methoxy-5-(thieno[3,2-b]pyridin-7-yloxy)phenyl)acetamide] | 1 to 1000 nM
28 | COc1cc(Oc2ccnc3cc(OC)c(OC)cc23)cc(-n2cccn2)c1 [Compound 26, 6,7-dimethoxy-4-(3-methoxy-5-(1H-pyrazol-1-yl)phenoxy)quinoline] | 1 to 1000 nM

What follows are compounds tested on Hela (assay: MTT assay of cellular proliferation). Details: Homo sapiens, 50% inhibition of cellular proliferation.
Assay type: cell-based
How it was run: as §3

Row | Structure (SMILES) | EC50
29 | COc1cc(NC(C)=O)cc(Oc2ccnc3ccsc23)c1 [Compound 43, N-(3-methoxy-5-(thieno[3,2-b]pyridin-7-yloxy)phenyl)acetamide] | 1 to 1000 nM
30 | COc1cc(Oc2ccnc3cc(OC)c(OC)cc23)cc(-n2cccn2)c1 [Compound 26, 6,7-dimethoxy-4-(3-methoxy-5-(1H-pyrazol-1-yl)phenoxy)quinoline] | 1 to 1000 nM

The compounds below were run on MDA-MB-231 (assay: MTT assay of cellular proliferation). Details: Homo sapiens; MDA-MB-231, MTT, 50% inhibition of cellular proliferation.
Assay type: cell-based
How it was run: as §3

Row | Structure (SMILES) | EC50
31 | COc1cc(NC(C)=O)cc(Oc2ccnc3ccsc23)c1 [Compound 43, N-(3-methoxy-5-(thieno[3,2-b]pyridin-7-yloxy)phenyl)acetamide] | 1 to 1000 nM
32 | COc1cc(Oc2ccnc3cc(OC)c(OC)cc23)cc(-n2cccn2)c1 [Compound 26, 6,7-dimethoxy-4-(3-methoxy-5-(1H-pyrazol-1-yl)phenoxy)quinoline] | 1 to 1000 nM

These compounds were tested on NCI-N87 (assay: MTT assay of cellular proliferation). Details: Homo sapiens, 50% inhibition of cellular proliferation.
Assay type: cell-based
How it was run: as §3

Row | Structure (SMILES) | EC50
33 | COc1cc(NC(C)=O)cc(Oc2ccnc3ccsc23)c1 [Compound 43, N-(3-methoxy-5-(thieno[3,2-b]pyridin-7-yloxy)phenyl)acetamide] | 1 to 1000 nM
34 | COc1cc(Oc2ccnc3cc(OC)c(OC)cc23)cc(-n2cccn2)c1 [Compound 26, 6,7-dimethoxy-4-(3-methoxy-5-(1H-pyrazol-1-yl)phenoxy)quinoline] | 1 to 1000 nM

The compounds below were run on T2 HCC (assay: MTT assay of cellular proliferation). Details: Mus musculus, 50% inhibition of cellular proliferation.
Assay type: cell-based
How it was run: as §3

Row | Structure (SMILES) | EC50
35 | COc1cc(NC(C)=O)cc(Oc2ccnc3ccsc23)c1 [Compound 43, N-(3-methoxy-5-(thieno[3,2-b]pyridin-7-yloxy)phenyl)acetamide] | 1 to 1000 nM
36 | COc1cc(Oc2ccnc3cc(OC)c(OC)cc23)cc(-n2cccn2)c1 [Compound 26, 6,7-dimethoxy-4-(3-methoxy-5-(1H-pyrazol-1-yl)phenoxy)quinoline] | 1 to 1000 nM

What follows are compounds tested on HCT116 (assay: MTT assay of cellular proliferation). Details: Homo sapiens, HCT-116, 50% inhibition of cellular proliferation.
Assay type: cell-based
How it was run: as §3

Row | Structure (SMILES) | EC50
37 | COc1cc(NC(C)=O)cc(Oc2ccnc3ccsc23)c1 [Compound 43, N-(3-methoxy-5-(thieno[3,2-b]pyridin-7-yloxy)phenyl)acetamide] | 1 to 1000 nM
38 | COc1cc(Oc2ccnc3cc(OC)c(OC)cc23)cc(-n2cccn2)c1 [Compound 26, 6,7-dimethoxy-4-(3-methoxy-5-(1H-pyrazol-1-yl)phenoxy)quinoline] | 1 to 1000 nM

The compounds below were run on NCI-H23 (assay: MECP in cancer cell line). Details: Homo sapiens.
Assay type: cell-based
How it was run: as §1

Row | Structure (SMILES) | minimal effective concentration
39 | COc1cc(NC(C)=O)cc(Oc2ccnc3ccsc23)c1 [Compound 43, N-(3-methoxy-5-(thieno[3,2-b]pyridin-7-yloxy)phenyl)acetamide] | 0.001 to 1 µM
40 | COc1cc(Oc2ccnc3cc(OC)c(OC)cc23)cc(-n2cccn2)c1 [Compound 26, 6,7-dimethoxy-4-(3-methoxy-5-(1H-pyrazol-1-yl)phenoxy)quinoline] | 0.001 to 1 µM

Each compound was assayed on NCI-N87 (assay: MECP in cancer cell line). Details: Homo sapiens.
Assay type: cell-based
How it was run: as §1

Row | Structure (SMILES) | minimal effective concentration
41 | COc1cc(NC(C)=O)cc(Oc2ccnc3ccsc23)c1 [Compound 43, N-(3-methoxy-5-(thieno[3,2-b]pyridin-7-yloxy)phenyl)acetamide] | 0.001 to 1 µM
42 | COc1cc(Oc2ccnc3cc(OC)c(OC)cc23)cc(-n2cccn2)c1 [Compound 26, 6,7-dimethoxy-4-(3-methoxy-5-(1H-pyrazol-1-yl)phenoxy)quinoline] | 0.001 to 1 µM
